Two molecules from ChEMBL document CHEMBL3244184, “Synthesis of 5-azacytidine-6-13C and -6-14C” (J Med Chem, 1977) can be followed below.

The nature of series [1]: Drug excretion in New Zealand white rabbit bile assessed as NSC-102816 equivalent excretion at 15 mg/kg, iv after 8 hrs by liquid scintillation counting. The series is classed as ADME, organism-based, Oryctolagus cuniculus. On the set-up: dose 15 mg/kg, route intravenous. As to conditions: in vivo.
Series [2] is described as follows: Drug excretion in New Zealand white rabbit urine assessed as NSC-102816 equivalent excretion at 15 mg/kg, iv after 8 hrs by liquid scintillation counting. The series is classed as ADME, organism-based, Oryctolagus cuniculus. On the set-up: dose 15 mg/kg, route intravenous. As to conditions: in vivo.

As for `N[14c]1ncn([C@@H]2O[C@H](CO)[C@@H](O)[C@H]2O)c(=O)n1`, the Drug excretion in series [1] stood at 1 %ID; in series [2], 35.3 %ID.
In the same order, the values of `Nc1n[14cH]n([C@@H]2O[C@H](CO)[C@@H](O)[C@H]2O)c(=O)n1` are 0.88 %ID and 2.53 %ID.
